# From publication PMC9241695, “Selective Metal Chelation by a Thiosemicarbazone Derivative Interferes with Mitochondrial Respiration and Ribosome Biogenesis in Candida albicans” (Microbiology Spectrum, 2022)
# Read-outs that look alike come from different tables or passages of the source.
# What was measured:
# [1] = Cytotoxicity testing (MTT); assay type: cell-based, human; conditions: human, HepG2 cells (hepatocellular carcinoma cell line)
# [2] = system: human hepatocellular carcinoma cell line HepG2; test: Cytotoxicity testing (MTT); assay type: cell-based; conditions: ratio of IC50 against HepG2 to MIC80 against C. albicans SC5314
# C. albicans SC5314 [3] = test: MIC of 19ak in the presence of H2O2; assay type: cell-based; conditions: Candida albicans, read-out: MIC against C. albicans SC5314 (Table S3)
# Procedure: Influence of oxidant or antioxidant molecules on 19ak activity. The MIC of
# 19ak in the presence of 1–2 mM H2O2 was measured using the broth microdilution
# assay as described above. […]
# C. albicans SC5314 [4] = test: RNA-seq transcriptional analysis; assay type: cell-based, Candida albicans
# Procedure: C. albicans SC5314 cells were inoculated into RPMI 1640 medium at a concentration of 1 × 10^7 cells/mL and incubated at 30°C for 6 h. The cells were then harvested, and RNA extraction was performed with the Yeast RNA Kit (OMEGA, Guangzhou, China). RNA purity was evaluated using a Nanodrop-2000, and RNA integrity was assessed using the RNA Nano 6000 detection kit. RNA-Seq libraries are prepared using NEB Next Ultra RNA Library Prep Kit (NEB, MA, USA) for Illumina. The cDNA library quality was quantified first by using Qubit 2.0 Fluorometer, detected on Agilent 2100 bioanalyzer. Clustering was performed in the cBot cluster generation system. After cluster generation, the library preparations were sequenced on the Illumina Novaseq platform. Library construction and sequencing were performed by Novogene (Beijing, China). Each sample was analyzed in triplicate.
# The raw data in fastq format were first processed by an internal perl script. In this step, clean data were obtained by applying various processing methods. […] The clean reads were individually mapped to the C. albicans SC5314 reference genome using HISAT2 (v2.0.5). The fragments per kilobase of transcript per million mapped reads (FPKM) value was calculated for each gene, and the read counts were mapped to the genes. […] Genes with an adjusted P value < 0.05 and |log2FoldChange| > 1 as detected by DESeq2 were considered DEGs. […]
# [5] = system: mitochondrial respiratory chain complex I; test: Mitochondrial respiratory chain complex activity in isolated mitochondria; assay type: biochemical, Candida albicans
# Procedure: Mitochondrial isolation and detection of mitochondrial respiratory chain complex activity. Mitochondria were isolated from C. albicans spheroplasts as previously described (8). A dilution series of 19ak was added to the mitochondrial suspensions to obtain final concentrations of 0, 0.125, 0.25, 0.5, and 1 μg/mL and incubated for 6 h at 30°C. The activities of mitochondrial respiratory chain complexes I-IV were determined by using the Micro Mitochondrial Respiratory Chain Complex Activity Assay Kit (Solarbio, Beijing, China). The concentration of protein was determined using the BCA Protein Assay Kit (Beyotime, Haimen, China).
# Mitochondrial complex activity was expressed as nmol/min/mg protein. […]
# 16HBE = test: Intracellular ferrous and zinc contents in mammalian cells (FeRhoNox-1, Zinbo-5); assay type: cell-based, human; conditions: 5 μg/mL, 12 h
# Procedure: (§1) FeRhoNox-1 is a commercially available fluorescent probe that specifically binds Fe^2+ and is used to measure intracellular Fe^2 + content. C. albicans SC5314 cells cultured overnight were diluted to roughly 1 × 10^6 cells/mL in RPMI 1640 medium and challenged with various doses of 19ak for 6 h. Next, the cells were fixed with 4% paraformaldehyde for 1 h. After washing three times with PBS, the cells were stained with 5 μM FeRhoNox-1 for 30 min and analyzed by flow cytometry (Becton, Dickinson, CA, USA). Mammalian cells culture is according to the method described in Cytotoxicity testing which was described in Supplemental material in detail. After 12 h of treatment with different concentrations of 19ak, the supernatant was discarded and washed three times with PBS. Cells were collected after staining with FeRhoNox-1 for 30 min in the dark, and the fluorescence intensity of stained cells was analyzed by flow cytometry.
# (§2) C. albicans SC5314 cells grown overnight were pelleted, washed three times with PBS buffer, and resuspended to obtain an OD600 of 2.0. Next, the cells were incubated with various concentrations of 19ak in 96-well plates at 30°C for 6 h, followed by incubation with 10 μM Zinbo-5 for 30 min. Finally, fluorescence was measured in a microplate reader (excitation at 355 nm, emission at 485 nm). […]
# HepG2 = test: as above; assay type: cell-based, human; conditions: 5 μg/mL, 12 h
# Procedure: as §1, §2
# [6] = system: C. albicans CAF2-1, zap1Δ/Δ, zap1Δ/Δ+ pZAP1; test: Growth of zap1 mutant, complemented and wild-type strains under 19ak; assay type: cell-based, Candida albicans
# Procedure: FIG 6 Effect of 19ak on ribosome biogenesis in C. albicans. (A to C) The wild strain CAF2-1, the mutant strain zap1Δ/Δ and its complemented strain zap1Δ/Δ+ pZAP1 were adjusted to 1 × 10^5 cells/mL in RPMI 1640 medium and treated with 0.25 or 0.5 μg/mL 19ak for 15 h at 30°C. Cell growth was monitored by detecting the optical density at 600 nm in a microplate reader. (A) Cells that were not treated with 19ak as a control. (B) Cells treated with 0.25 μg/mL 19ak. (C) Cells treated with 0.5 μg/mL 19ak. Each point represents the mean of three replicates. The OD600 values at the final detection point were used to analyze significant differences. (D) C. albicans zap1Δ/Δ and its complemented strain zap1Δ/Δ + pZAP1 were treated with 0.5 μg/mL 19ak for 6 h at 30°C. The transcription levels of several genes associated with ribosomal biosynthesis were determined by qPCR. The bars represent means ± SD from three independent experiments. *, P < 0.05; **, P < 0.01; ***, P < 0.001. ns, nonsignificance. (E) qPCR analysis of the expression of genes associated with iron and zinc homeostasis after TPEN treatment. C. albicans SC5314 was cultured in RPMI 1640 medium and treated with 0.05 μg/mL or 0.2 μg/mL TPEN for 6 h at 30°C for qPCR analysis.
structure (smiles),measurement,setting,value
C/C(=N\NC(=S)N(C)C)c1ccccn1 [Compound 19ak],IC50,[1],10.3 µg/mL
same,Selectivity index HepG2,[2],82.4
same,MIC,"C. albicans SC5314 [3]; SC5314, +1 mM H2O2",0.25 µg/mL
same,MIC,"C. albicans SC5314 [3]; SC5314, +2 mM H2O2",0.5 µg/mL
same,MIC,"C. albicans SC5314 [3]; SC5314, without H2O2",0.125 µg/mL
same,Expression of genes involved in iron and zinc acquisition,C. albicans SC5314 [4]; high dose (2 μg/mL),downregulated
same,Expression of genes involved in iron and zinc acquisition,C. albicans SC5314 [4]; low dose (0.5 μg/mL),strongly induced
same,Reduction of NADH dehydrogenase activity with extra metal ions,"[5]; 100 μM metal ions, 0.125 or 1 μg/mL 19ak",partially restored
same,"Activity of mitochondrial respiratory chain complex I (CI, NADH dehydrogenase)","[5]; purified mitochondria, 0.125-1 μg/mL, 6 h",significantly inhibited
same,Ferrous and zinc contents in 16HBE cells,16HBE,almost had no effects
same,Ferrous and zinc contents in HepG2 cells,HepG2,almost had no effects
same,"Activity against CAF2-1, zap1Δ/Δ and complemented strain with exogenous Zn^2+",[6]; 100 μM Zn^2+ added,lost the activities
same,Growth of zap1 mutant versus complemented strain,"[6]; 0.25 or 0.5 μg/mL, 15 h, 30°C",more severe growth defects
